Reference: patent US20130344140A1, “NOVEL PHARMACEUTICAL COMBINATIONS AND METHODS FOR TREATING CANCER” (Agency for Science, Technology and Research, priority 2011, published 2013)

Experiments:
[1] = system: A375, U2OS, A549, HCT116 p53+/+, HCT116 p53−/−, MDA-MB-486 and H1299 cells; assay: Cell cycle distribution (propidium iodide flow cytometry) in a panel of tumor-derived cell lines after VX-680; type: cell-based; settings: 200 nM VX-680; harvested at 24, 48 and 72 h; p53 wild-type, mutant and deleted lines
Procedure: (a) p53-positive cells (A375, U2OS, A549 and HCT116 p53+/+) and (b) p53-compromised cells (HCT116 p53−/−, […] and H1299) were treated with 200 nM VX-680 and harvested at the indicated time points. Analysis of cell cycle distribution using propidium iodide staining was performed using flow cytometry. Representative DNA profiles are shown. DNA content is indicated. No DNA profile was shown for cells that are 100% apoptotic.
p53 has been implicated in a postmitotic G1 checkpoint in response to various mitotic inhibitors. We examined whether this checkpoint is induced after aurora kinase inhibition by VX-680 and whether tetraploidy is suppressed by wild-type p53 functions. Using a panel of commonly used tumor-derived cell lines expressing either wild-type p53, mutant p53 or a deletion at the p53 gene locus (Table 1), we tested the correlation of p53 gene status to VX-680-induced endoreduplication. These cell lines were treated with VX-680, and harvested for cell cycle analysis at 24, 48 and 72 h.

p53, p21, MDM2 and PUMA = assay: Accumulation of p53 and p53-dependent gene products in response to VX-680 (western blot, transcript levels); type: cell-based; settings: cells treated with VX-680 (FIG. 8A)
Procedure: (A) Western blots show the accumulation of p53, p21, MDM2 and PUMA proteins. Graphs below represent the quantification of the corresponding transcript levels of the proteins.
For western blotting, cell extracts were prepared using NP-40 lysis buffer (50 mM Tris-HCl (pH 8.0), 150 mM NaCl, 1% NP-40, 5 mM EDTA supplemented with protease and phosphatase inhibitor cocktails (Sigma).
Total RNA was isolated using the RNeasy kit (Qiagen, Valencia, Calif., USA). The RNA was quantified using spectrophotometric analysis and used for quantitative real-time PCR. The primers used for each target analyzed are available on request. The RNA Master Power SYBR Green Mix (Roche) was used for quantification of mRNA levels.

A549 cells = assay: Colony survival assay, A549; type: cell-based; settings: A549, VX-680 treatment alone, 48 h
Procedure: Colonies were counted 2 weeks after recovery in drug-free media. Cells were fixed with glutaraldehyde and stained with crystal violet. Plates are scanned and colonies were counted with an automated image analyzer. Three independent experiments were performed for each cell line.
Each data point represents the mean±S.D.
A total of 1000 cells were plated on each 10 cm plate and allowed to adhere overnight. […] After 48 h, cells were washed and recovered in fresh media for 12 days. Cells were then fixed in 6% glutaraldehyde (Sigma) and stained with crystal violet. Colonies were counted using GelCount™ (Oxford Optronix, Oxford, England). Each condition was carried out in triplicate.

[2] = system: A549 cells transfected with p53-specific siRNA; assay: Cell cycle analysis of A549 cells transfected with p53 siRNA and exposed to VX-680; type: cell-based; settings: A549 with p53 siRNA knockdown, exposed to VX-680
Procedure: (B) Extent of endoreduplication is exacerbated in cells with compromised p53 functions. A549 cells transfected with p53 siRNA (Dharmacon pool) were incubated with VX-680 (200 nM) for the indicated time periods after transfection. […] DNA-dependent cell cycle analysis was performed using flow cytometry.
p53 siRNA oligo 1 (p53si) 5′-[…] GCGUCUU-3′ (SEQ ID NO: 9), cyclin A2 siRNA 5′-[…]-3′ (SEQ ID NO: 10) and cyclin B1 siRNA 5′-[…]-3′ were from Dharmacon (Lafayette, Colo., USA) (SEQ ID NO:11). Cells were plated in six-well dishes overnight in antibiotic-free media. Cells were incubated with Optimen (GIBCO) for an hour before transfection using Lipofectamine 2000 (Invitrogen) and siRNA (30 nM) according to the manufacturer's recommendation. Cells were either harvested at 48 h after transfection or incubated with VX-680 for another 48 h before analysis.

[3] = system: MDA-MB 468 and HCT116 p53−/−; assay: Annexin V apoptosis assay, p53-compromised cell lines; type: cell-based; settings: various concentrations of VX-680; MDA-MB 468 and HCT116 p53−/−
Procedure: Cells were then harvested and stained for annexin V to detect apoptotic cells.
For analysis of apoptosis, cells were harvested without fixation. Apoptosis was evaluated using the annexin V (fluorescein isothiocyanate (FITC))-propidium iodide binding assay (Roche, Indianapolis, Ind., USA). The extent of apoptosis was quantified as a percentage of annexin V-positive cells over the total cell population. Flow cytometric analysis was performed on a BD LSR II System (BD Biosciences, Stockholm, Sweden). Data were analyzed using FlowJo software and ModFit LT (Verity Software House, Topsham, Me., USA).

human keratinocytes = settings: HEK cells treated with VX-680
Procedure: Primary human keratinocytes were purchased from Invitrogen and cultured in defined keratinocyte serum-free media (Invitrogen). All cell lines were cultured in a CO2 incubator (5% CO2 and 21% O2) at 37° C.
For analysis of cell cycle distribution, cells were harvested and fixed in 70% ethanol/PBS solution. Cells were stained in propidium-iodide containing solution (25 μg/ml propidium iodide supplemented with 1 mg/ml RNase A, in PBS (pH 7.8); Sigma Chemical, St Louis, Mo., USA) for 15 min at room temperature.

Compound: Cc1cc(Nc2cc(N3CCN(C)CC3)nc(Sc3ccc(NC(=O)C4CC4)cc3)n2)[nH]n1 [VX-680, cyclopropane carboxylic acid of {4-[4-(4-methyl-piperazin-1-yl)-6-(5-methyl-2H-pyrazol-3-ylamino)-pyrimidin-2-ylsulphanyl]-phenyl}-amide]
- endoreduplication [1]: all tumor cell lines undergo endoreduplication
- p53 activation (p53, p21, MDM2 and PUMA): p53 was activated
- p53 target genes p21, PUMA and MDM2 (p53, p21, MDM2 and PUMA): all upregulated
- number of colonies (A549 cells): drastically reduced
- cells with 16n DNA content [2]: > 15%
- apoptosis (annexin V) [3]: underwent apoptosis
- tetraploidy formation (human keratinocytes): significant tetraploid G2/M population
